Non-standard residues stand in square brackets, D forms with d. No end group written: not given here. *: point of attachment. Aib = CC(C)(N)C(=O)O; Propyl = CCC*
Columns and labels:
CRH-1 receptor = target: T1, CRH-1 receptor (Homo sapiens, UniProt P34998); experiment: Binding affinity of h/r-CRH analogues to the CRH-1 receptor; conditions: averages from 3 experiments performed in duplicates
T1 sequence (P34998 24-415): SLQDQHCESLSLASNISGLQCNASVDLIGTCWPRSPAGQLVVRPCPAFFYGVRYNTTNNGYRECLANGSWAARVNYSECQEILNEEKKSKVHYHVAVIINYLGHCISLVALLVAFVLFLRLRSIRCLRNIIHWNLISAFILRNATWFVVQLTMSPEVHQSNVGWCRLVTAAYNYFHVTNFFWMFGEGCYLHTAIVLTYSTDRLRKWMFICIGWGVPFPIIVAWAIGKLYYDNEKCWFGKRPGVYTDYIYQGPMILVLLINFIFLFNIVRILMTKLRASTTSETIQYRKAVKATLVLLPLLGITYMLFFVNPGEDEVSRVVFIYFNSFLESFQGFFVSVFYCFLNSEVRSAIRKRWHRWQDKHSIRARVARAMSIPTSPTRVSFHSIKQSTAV

CRH-R1 = target: T2, CRH-R1 (Homo sapiens, UniProt P34998); experiment: Stimulation of cyclic AMP generation (CRE-luciferase activity) in LLC-PK1 cells cotransfected with CRH-R1 and CRE; type: cell-based; conditions: LLC-PK1 cells cotransfected with CRH-R1 and CRE cDNA; peptides 10^-6 to 10^-11 M, 7 hours at 37°C; luciferase read-out; maximum response compared to h/r-CRH; read-out: Biological activity: % Response max/CRH
T2 construct: expressed in transfected cells; host or cells: LLC-PK1 cells (electroporation)
T2 sequence (P34998 24-415): T1 sequence (P34998 24-415)
Procedure: The capacity of CRH and related peptide analogues to stimulate cyclic AMP generation was monitored in LLC-PK1 cells cotransfected with cDNA of CRH-R1 and CRE. For transfection the method of electroporation was applied and 40 millions of LLC-PK1 cells were prepared and washed in cytomix 1X transfection medium. The electroporation medium consisted of 1000 μL of cytomix 2X, 864 μL of sterilized water, 80 μL of ATP 50 mM, 3.2 mg of glutathion, 20 μg of CRH-R1 cDNA and 20 μg of CRE cDNA. 500 μL of the above solution were transferred in the electroporation device and after remaining for 10 minutes a standard growth medium was added (DMEM without phenol red with glutamine, antibiotics, and 10% FCS) to a total volume of 50 mL. The suspension was distributed in […] of 24 wells each, by adding 1 mL per well, and was allowed to pre-incubate for 24 hours. The growth medium was aspirated and replaced with fresh one followed by another preincubation for 24 hours. The cells were then challenged with graded concentrations (10^−6 to 10^−11 M) of the test peptides and incubated for 7 hours at 37°C. After that, the medium with the added peptides was removed, the cells were washed twice with PBS 1X, 100 μL of lysis buffer 1X per well were added, the plates were left at room temperature for 30 minutes and then stored at −80°C overnight. The luciferace activity was measured with the use of a luminometer after the addition of 50 μL of lysed cell preparation and 50 μL of bioluminescence medium per well in a 96 well plate luminometer.

[1] = times more potent than α-helical CRH; cited from earlier work
Source text: Introduction of D-amino acids leading to stabilization of β-turns, can provide analogues with increased potency but not all residues are susceptible to such an alteration, leading even to the opposite effect. However, the D-Phe^12 substitution has proven to be a favorable one especially combined with other advantageous modifications such as the replacement of Met at positions 21 and 38 with Nle.

Substance	IC50 (CRH-1 receptor) [nM]	Emax (CRH-R1) [%]	Potency relative to α-helical CRH [1]
SEEPPISLDLT[dF]H[Aib]LREVLEMARAEQLAQQAHSNRKLMEII-NH2 [Analogue 1, [D-Phe^12, Aib^14]CRH]	226	60	–
[D-Phe^12, Nle^21, 38]CRH21-41	–	–	15 times
[D-Phe^12]CRH	–	–	twice

The next lines start with results.

IC50 (CRH-1 receptor) [nM]	Emax (CRH-R1) [%]	Substance	Potency relative to α-helical CRH [1]
35	60	SEEPPISLDLT[dF]HLLREVLEMARAEQLAQQAHSNRKLC(Propyl)EII-NH2 [Analogue 4, [D-Phe^12, Cys(Pr)^38]CRH]	–
8.4	60	SEEPPISLDLT[dF]HL[Aib]REVLEMARAEQLAQQAHSNRKLMEII-NH2 [Analogue 2, [D-Phe^12, Aib^15]CRH]	–
